Test results reported in ChEMBL document CHEMBL1142094, “Effects of glutathione and ascorbic acid on streptomycin sensitivity of Escherichia coli” (2007).
Values after ≈ are worked out from the molar mass of the structure shown. Active and inactive are the calls of the source. The calls are words filed in the database; no cut-off is given here.

Key:
[1] = test system: Escherichia coli; experiment: Susceptibility of Escherichia coli K12 MG1655 by agar dilution method; assay type: functional
[2] = test system: Escherichia coli; experiment: Susceptibility of Escherichia coli K12 MG1655 in presence of 10 mM glutathione by agar dilution method relative to control; assay type: functional
[3] = test system: Escherichia coli; experiment: Increase in ROS levels in Escherichia coli K12 MG1655 assessed as ratio of ROS with antibiotic to ROS without antibiotic; assay type: functional
[4] = test system: Escherichia coli; experiment: Decrease in sensitivity of Escherichia coli K12 MG1655 assessed as reduction in zone of inhibition in presence of 10 mM glutathione by disk diffusion method; assay type: functional, organism-based
[5] = test system: Escherichia coli; experiment: Antibacterial activity against Escherichia coli K12 XL1 Blue in presence of 10 mM ascorbic acid; assay type: functional
[6] = test system: Escherichia coli; experiment: Antibacterial activity against Escherichia coli K12 DH5alpha; assay type: functional
[7] = test system: Escherichia coli; experiment: Antibacterial activity against Escherichia coli K12 DH5alpha in presence of 10 mM ascorbic acid; assay type: functional
[8] = test system: Escherichia coli; experiment: Decrease in sensitivity of Escherichia coli K12 MG1655 assessed as reduction in zone of inhibition in presence of 10 mM ascorbic acid by disk diffusion method; assay type: functional, organism-based
[9] = test system: Escherichia coli; experiment: Antibacterial activity against Escherichia coli K12 W3110 in presence of 10 mM ascorbic acid; assay type: functional
[10] = test system: Escherichia coli; experiment: Antibacterial activity against Escherichia coli K12 XL1 Blue; assay type: functional
[11] = test system: Escherichia coli; experiment: Antibacterial activity against Escherichia coli K12 MG1655 in presence of ascorbic acid by agar dilution method relative to control; assay type: functional
[12] = test system: Escherichia coli; experiment: Antibacterial activity against Escherichia coli K12 W3110; assay type: functional

Compound | MIC [1] [µg/mL] | MIC [2] [µg/mL] | Ratio [3] | also measured
O=C(N[C@H](CO)[C@H](O)c1ccc([N+](=O)[O-])cc1)C(Cl)Cl [CHLORAMPHENICOL] | 8 (≈ 24.8 µM) | 4 |  | 
O=C(O)c1cn(C2CC2)c2cc(N3CCNCC3)c(F)cc2c1=O [CIPROFLOXACIN] |  |  | 1.1 | 
NC[C@H]1O[C@H](O[C@H]2[C@H](O)[C@@H](O[C@H]3O[C@H](CO)[C@@H](O)[C@H](N)[C@H]3O)[C@H](N)C[C@@H]2N)[C@H](O)[C@@H](O)[C@@H]1O [KANAMYCIN] | 6 (≈ 12.4 µM) | > 250 | 0.87 | 
CC1=CC(=O)c2ccccc2C1=O [MENADIONE] |  |  | 2.02 | 
CN[C@@H]1[C@H](O)[C@H](NC)[C@H]2O[C@@]3(O)C(=O)C[C@@H](C)O[C@H]3O[C@@H]2[C@H]1O [SPECTINOMYCIN] | 20 (≈ 60.2 µM) | > 300 |  | 
CN[C@@H]1[C@H](O[C@H]2[C@H](O[C@H]3[C@H](O)[C@@H](O)[C@H](N=C(N)N)[C@@H](O)[C@@H]3N=C(N)N)O[C@@H](C)[C@]2(O)C=O)O[C@@H](CO)[C@H](O)[C@H]1O [STREPTOMYCIN] | 8 (≈ 13.8 µM) | > 250 | 0.78 | Activity [4]: Active; MIC [5]: > 8 µg/mL; MIC [6]: 4 µg/mL (≈ 6.88 µM); MIC [7]: > 8 µg/mL; Activity [8]: Active; MIC [9]: > 8 µg/mL; MIC [10]: 4 µg/mL (≈ 6.88 µM); MIC [11]: 20 µg/mL; MIC [12]: 4 µg/mL (≈ 6.88 µM)
CN(C)[C@@H]1C(O)=C(C(N)=O)C(=O)[C@@]2(O)C(O)=C3C(=O)c4c(O)cccc4[C@@](C)(O)[C@H]3C[C@@H]12 [TETRACYCLINE] | 4 (≈ 9 µM) | 4 | 0.96 | 
GENTAMICIN | 2 | > 200 | 1 | 
